Experimental data as given in patent US4769373A, “Anti-arrhythmic azabicyclic compounds” (Richter Gedeon Vegyeszeti Gyar Rt., priority 1983, dated 1988).
Structures can show the parent of a compound that is named as a salt.

Columns and labels:
[1] = test system: disorders of the cardiac rhythm provoked by aconitine; assay: animal or person; conditions: for ED50: Rattus norvegicus, iv, read-out: ED50 (dose required to restore the rhythm in 50%), Wistar rats, i.v., aconitine-induced arrhythmia; for ED50 (dose required to restore the rhythm in 50%): i.v., aconitine-induced arrhythmia; for LD50/ED50 index: LD50 mice i.v. / ED50 rats i.v.; for index ratio (index of the test compound : index of Lidocaine): relative to Lidocaine = 1
Procedure: The anti-arrhytmic effect was tested in Wistar rats. The animals first received aconitine intravenously to provoke disorders of the cardiac rhythm [M. Fekete and J. Borsy: Med. Exp. Basel, 10, 93 (1964)] and then i.v. the test (or reference) compound. […] The dose required to restore the rhythm in 50% (ED50 mg/kg) was determined.

in vivo = conditions: mouse, iv, mice, i.v., read-out: LD50 (dose causing 50% mortality)
[2] = test system: ischiadic nerve isolated from frog; assay: local anaesthetic activity on isolated ischiadic nerve; conditions: relative to Lidocaine
[3] = test system: heart isolated from guinea pig; assay: electrophysiological parameters (conduction time, refractory period) of isolated heart; conditions: relative to quinidine
Description: The new compounds have no beta-receptor blocking effect. In a local anaesthetic mechanism of effect the compounds of the formula (I) influence certain electrophysiological parameters of the heart. E.g. increase in conduction time and refractory period were observed on heart isolated from guinea pig.

`CCN(CC)CC(=O)Nc1c(C)cccc1C` [Lidocaine, reference compound] gave an ED50 [1] of 7.7 mg/kg.

For `CN1CC2CCC(N(C)C)C(C1)C2OC(=O)c1ccccc1` (stereo not drawn) [compound 1528, 6α-dimethylamino-3-methyl-9α-benzoyloxy-3-azabicyclo[3.3.1]nonane dihydrochloride], the “ED50 (dose required to restore the rhythm in 50%)” value ([1]; Wistar rats, dihydrochloride) was 0.68 mg/kg.

For `COc1cc(C(=O)OC2C3CCC(N(C)C)C2CN(C)C3)cc(OC)c1OC` (stereo not drawn) [compound 1529, 6α-dimethylamino-3-methyl-9α(3',4',5'-trimethoxybenzoyloxy)-3-azabicyclo[3.3.1]nonane], the LD50/ED50 index [1] was 234.0, the ED50 [1] was 0.15 mg/kg and the “anti-arrhythmic effect, oral” value ([1]; Wistar rats, 20 mg/kg dose p.o.) was “prolonged anti-arrhythmic effect”. The “index ratio (index of the test compound : index of Lidocaine)” value (“index ratio” below) [1] was 71.8 and the LD50 (in vivo) was 35.2 mg/kg.

In the case of `CN1CC2CCC(N(C)C)C(C1)C2OC(=O)c1ccc(-c2ccccc2)cc1` (stereo not drawn) [compound 1530, 6α-dimethylamino-3-methyl-9α-(4'-phenylbenzoyloxy)-3-azabicyclo[3.3.1]nonane], the ED50 [1] is reported as 1.8 mg/kg.

Compound `CN1CC2CCC(N(C)C)C(C1)C2OC(=O)C1c2ccccc2Oc2ccccc21` (stereo not drawn) [compound 1531, 6α-dimethylamino-3-methyl-9α-(xanthen-9-carbonyloxy)-3-azabicyclo[3.3.1]nonane dihydrochloride] has an ED50 [1] of 1 mg/kg.

`CN1CC2CCC(N(C)C)C(C1)C2Oc1ccccc1` (stereo not drawn) [compound 1533, 6α-dimethylamino-3-methyl-9α-phenoxy-3-azabicyclo[3.3.1]nonane] gave an ED50 [1] of 1.4 mg/kg.

For `CN1CC2CCC(N(C)C)C(C1)C2Oc1ccc(Cl)cc1` (stereo not drawn) [compound 1534, 6α-dimethylamino-3-methyl-9α-(4'-chlorophenoxy)-3-azabicyclo[3.3.1]nonane fumarate], the ED50 [1] was 1.1 mg/kg.

`CN1CC2CCC(N(C)C)C(C1)C2Oc1cccc(Cl)c1` (stereo not drawn) [compound 1535, 6α-dimethylamino-3-methyl-9α-(3'-chlorophenoxy)-3-azabicyclo[3.3.1]nonane monohydrochloride] showed an ED50 [1] of 2.5 mg/kg.

`CN1CC2CCC(N(C)C)C(C1)C2Oc1ccccc1Cl` (stereo not drawn) [compound 1536, 6α-dimethylamino-3-methyl-9α-(2'-chlorophenoxy)-3-azabicyclo[3.3.1]nonane dihydrochloride] showed an ED50 [1] of 1.8 mg/kg.

With `CN1CC2CCC(N(C)C)C(C1)C2Oc1ccc(Cl)c(Cl)c1` (stereo not drawn) [compound 1537, 6α-dimethylamino-3-methyl-9α-(3',4'-dichlorophenoxy)-3-azabicyclo[3.3.1]noname fumarate] the ED50 [1] was 4 mg/kg.

In the case of `CN1CC2CCC(N(C)C)C(C1)C2Oc1cccc(C(F)(F)F)c1` (stereo not drawn) [compound 1539, 6α-dimethylamino-3-methyl-9α-(3'-trifluoromethylphenoxy)-3-azabicyclo[3.3.1]nonane fumarate], the “local anaesthetic activity compared with Lidocaine” value [2] is reported as “as active as the Lidocaine”, the LD50/ED50 index [1] is reported as 256.0 and the “ED50 (dose required to restore the rhythm in 50%)” value ([1]; Wistar rats) is reported as 0.25 mg/kg. The “index ratio” value [1] was 78.5 and the LD50 (in vivo) was 64 mg/kg.

With `CN1CC2CCC(N(C)C)C(C1)C2OC(c1ccccc1)c1ccccc1` (stereo not drawn) [compound 1540, 6α-dimethylamino-3-methyl-9α-benzhydryloxy-3-azabiocyclo[3.3.1]nonane] the ED50 [1] was 0.4 mg/kg.

For `CN1CC2CCC(N(C)C)C(C1)C2OC(=O)c1ccccc1` (stereo not drawn) [compound 1541, 6α-dimethylamino-3-methyl-9β-benzoyloxy-3-azabicyclo[3.3.1]nonane dihydrochloride], the “ED50 (dose required to restore the rhythm in 50%)” value ([1]; Wistar rats, dihydrochloride) was 3.5 mg/kg.

With `CN1CC2CCC(N(C)C)C(C1)C2OC(=O)c1ccccc1` (stereo not drawn) [compound 1542, 6β-dimethylamino-3-methyl-9α-benzoyloxy-3-azabicyclo[3.3.1]nonane] the “local anaesthetic activity compared with Lidocaine” value [2] was “four times more favorable effective than Lidocaine”, the LD50/ED50 index [1] was 50.5 and the “ED50 (dose required to restore the rhythm in 50%)” value ([1]; Wistar rats) was 0.43 mg/kg. The “index ratio” value [1] was 15.5, the LD50 (in vivo) was 21.7 mg/kg and the “activity on electrophysiological parameters compared with quinidine” value [3] was “about five times more active than the quinidine”.

In the case of `CN1CC2CCC(N(C)C)C(C1)C2OC(=O)C1c2ccccc2Oc2ccccc21` (stereo not drawn) [compound 1543, 6β-dimethylamino-3-methyl-9α-(xanthen-9'-carbonyloxy)-3-azabicyclo[3.3.1]nonane], the “ED50 (dose required to restore the rhythm in 50%)” value ([1]; Wistar rats) is reported as 0.6 mg/kg.

For `CN1CC2CCC(N(C)C)C(C1)C2Oc1ccccc1` (stereo not drawn) [compound 1544, 6β-dimethylamino-3-methyl-9α-phenoxy-3-azabicyclo-[3.3.1]nonane], the “ED50 (dose required to restore the rhythm in 50%)” value ([1]; Wistar rats) was 1.4 mg/kg.

With `CN1CC2CCC(N(C)C)C(C1)C2Oc1cccc(C(F)(F)F)c1` (stereo not drawn) [compound 1545, 6β-dimethylamino-3-methyl-9α-(3'-trifluoromethylphenoxy)-3-azabicyclo[3.3.1]nonane dihydrochloride] the “ED50 (dose required to restore the rhythm in 50%)” value ([1]; Wistar rats, dihydrochloride) was 1.8 mg/kg.

With `CN1CC2CCC(N(C)C)C(C1)C2OC(=O)C1c2ccccc2Oc2ccccc21` (stereo not drawn) [compound 1547, 6α-dimethylamino-3-methyl-9β-(xanthen-9'-carbonyloxy)-3-azabicyclo[3.3.1]nonane] the LD50/ED50 index [1] was 51.1, the “ED50 (dose required to restore the rhythm in 50%)” value ([1]; Wistar rats) was 0.71 mg/kg and the “index ratio” value [1] was 15.7. The LD50 (in vivo) was 36.3 mg/kg.

Compound `Cc1ccc(OC2C3CCC(N(C)C)C2CN(C)C3)cc1` (stereo not drawn) [compound 1548, 6α-dimethylamino-3-methyl-9α-(4'-methylphenoxy)-3-azabicyclo[3.3.1]nonane fumarate] has an ED50 [1] of 2.5 mg/kg.

In the case of `CN1CC2CCC(N(C)C)C(C1)C2OC(=O)c1ccc(F)cc1` (stereo not drawn) [compound 1641, 6α-dimethylamino-3-methyl-9α-(4'-fluorobenzoyloxy)-3-azabicyclo[3.3.1]nonane dihydrochloride monohydrate], the ED50 [1] is reported as 0.55 mg/kg.

Compound `CN1CC2CCC(N(C)C)C(C1)C2OC(=O)c1cccc(F)c1` (stereo not drawn) [compound 1642, 6α-dimethylamino-3-methyl-9α-(3'-fluorobenzoyloxy)-3-azabicyclo[3.3.1]nonane dihydrochloride] has an ED50 [1] of 0.5 mg/kg.

In the case of `CN1CC2CCC(N(C)C)C(C1)C2OC(=O)c1ccc(Cl)c(Cl)c1` (stereo not drawn) [compound 1643, 6α-dimethylamino-3-methyl-9α-(3',4'-dichlorobenzoyloxy)-3-azabicyclo[3.3.1]nonane dihydrochloride], the ED50 [1] is reported as 1.2 mg/kg.

For `CN1CC2CCC(N(C)C)C(C1)C2OC(=O)c1ccccc1Cl` (stereo not drawn) [compound 1644, 6α-dimethylamino-3-methyl-9α-(2'-chlorobenzoyloxy)-3-azabicyclo[3.3.1]nonane dihydrochloride monohydrate], the ED50 [1] was 1.4 mg/kg.

`CN1CC2CCC(N(C)C)C(C1)C2OC(=O)c1cccc(Cl)c1` (stereo not drawn) [compound 1645, 6α-dimethylamino-3-methyl-9α-(3'-chlorobenzoyloxy)-3-azabicyclo[3.3.1]nonane dihydrochloride monohydrate] gave an ED50 [1] of 1.2 mg/kg.

In the case of `CN1CC2CCC(N(C)C)C(C1)C2OC(=O)c1cccc(C(F)(F)F)c1` (stereo not drawn) [compound 1648, 6α-dimethylamino-3-methyl-9α-(3'-trifluoremethylbenzoyloxy)-3-azabicyclo[3.3.1]nonane dihydrochloride], the ED50 [1] is reported as 1 mg/kg.

For `CN1CC2CCC(N(C)C)C(C1)C2OC(=O)c1ccc(Cl)cc1` (stereo not drawn) [compound 1658, 6β-dimethylamino-3-methyl-9α-(4'-chlorobenzoyloxy)-3-azabicyclo[3.3.1]nonane dihydrochloride], the “ED50 (dose required to restore the rhythm in 50%)” value ([1]; Wistar rats, dihydrochloride) was 2.3 mg/kg.

Compound `CN1CC2CCC(N(C)C)C(C1)C2OC(=O)c1cccs1` (stereo not drawn) [compound 1797, 6α-dimethylamino-3-methyl-9α-(2'-thenoyloxy)-3-azabicyclo[3.3.1]nonane] has an ED50 [1] of 0.45 mg/kg.

In the case of `Cc1ccc(C(=O)OC2C3CCC(N(C)C)C2CN(C)C3)cc1` (stereo not drawn) [compound 1799, 6α-dimethylamino-3-methyl-9α-(4'-methylbenzoyloxy)-3-azabicyclo[3.3.1]nonane dihydrochloride], the ED50 [1] is reported as 1.1 mg/kg.

In the case of `CN1CC2CCC(N(C)C)C(C1)C2OC(=O)c1ccc(Cl)cc1` (stereo not drawn) [compound 1800, 6α-dimethylamino-3-methyl-9α-(4'-chlorobenzoyloxy)-3-azabicyclo[3.3.1]nonane dihydrochloride], the “ED50 (dose required to restore the rhythm in 50%)” value ([1]; Wistar rats, dihydrochloride) is reported as 0.75 mg/kg.

In the case of `CN1CC2CCC(N(C)C)C(C1)C2OC(=O)c1ccc2ccccc2c1` (stereo not drawn) [compound 1801, 6α-dimethylamino-3-methyl-9α-(2'-naphthoyloxy)-3-azabicyclo[3.3.1]nonane], the ED50 [1] is reported as 0.7 mg/kg.

With `CN1CC2CCC(N(C)C)C(C1)C2OC(=O)c1ccc2ccccc2c1` (stereo not drawn) [compound 1840, 6β-dimethylamino-3-methyl-9α-(2'naphthoyloxy)-3-azabicyclo[3.3.1]nonane dihydrochloride] the “ED50 (dose required to restore the rhythm in 50%)” value ([1]; Wistar rats, dihydrochloride) was 0.95 mg/kg.
